Assay results: patent US5688913A, “CS-1 peptidomimetics, compositions and methods of using the same” (Cytel Corporation, priority 1995, dated 1997)
Like-named read-outs stand apart in the source and are kept apart here. Square brackets hold non-standard residues; d marks the D form. Peptide text beside a SMILES is read from it. * marks the point of attachment. PhAc = O=C(Cc1ccccc1)*

Assays:
Jurkat T cell line = test: Jurkat cell binding to frozen human RA synovial sections; format: cell-based; conditions: 10-mer at 500 μg/ml; inhibitor peptide at its IC50 value
Description: Binding studies were carried out using the Jurkat T cell line and frozen RA synovial sections. […] Stimulated MOLT-4 cells behaved similarly.

VLA-4 = VLA-4 (Homo sapiens, UniProt P05556+P13612); test: cell-based; format: cell-based; parameters: host or cells: Jurkat (human T lymphoblastic line)
Sequence of VLA-4 (P13612 34-1032): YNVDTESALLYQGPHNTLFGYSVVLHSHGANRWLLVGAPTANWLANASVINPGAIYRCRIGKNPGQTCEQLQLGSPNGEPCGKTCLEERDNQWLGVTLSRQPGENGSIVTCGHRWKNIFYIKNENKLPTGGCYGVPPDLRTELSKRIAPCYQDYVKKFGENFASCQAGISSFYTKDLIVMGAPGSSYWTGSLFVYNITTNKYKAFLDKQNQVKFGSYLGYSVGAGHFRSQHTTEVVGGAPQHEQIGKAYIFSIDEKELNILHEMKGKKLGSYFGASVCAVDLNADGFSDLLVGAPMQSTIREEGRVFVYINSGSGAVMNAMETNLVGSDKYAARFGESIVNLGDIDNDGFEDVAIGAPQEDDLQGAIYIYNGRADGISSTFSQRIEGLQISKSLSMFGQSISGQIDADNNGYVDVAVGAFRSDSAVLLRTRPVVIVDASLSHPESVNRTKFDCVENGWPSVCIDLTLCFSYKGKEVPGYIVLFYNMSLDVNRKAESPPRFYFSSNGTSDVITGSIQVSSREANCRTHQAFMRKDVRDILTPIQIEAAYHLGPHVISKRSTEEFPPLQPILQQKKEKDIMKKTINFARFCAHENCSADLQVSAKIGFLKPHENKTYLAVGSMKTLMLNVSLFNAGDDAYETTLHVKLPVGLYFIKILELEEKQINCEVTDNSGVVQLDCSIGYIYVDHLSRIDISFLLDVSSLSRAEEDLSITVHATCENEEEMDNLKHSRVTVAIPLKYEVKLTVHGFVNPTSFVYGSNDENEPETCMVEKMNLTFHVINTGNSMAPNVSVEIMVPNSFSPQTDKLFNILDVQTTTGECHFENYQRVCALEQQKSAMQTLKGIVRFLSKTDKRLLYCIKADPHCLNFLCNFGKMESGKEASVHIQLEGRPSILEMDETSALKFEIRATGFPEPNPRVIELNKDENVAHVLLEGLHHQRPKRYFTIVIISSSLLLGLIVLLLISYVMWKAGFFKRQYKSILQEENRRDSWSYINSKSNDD
Sequence of VLA-4 (P05556 21-798): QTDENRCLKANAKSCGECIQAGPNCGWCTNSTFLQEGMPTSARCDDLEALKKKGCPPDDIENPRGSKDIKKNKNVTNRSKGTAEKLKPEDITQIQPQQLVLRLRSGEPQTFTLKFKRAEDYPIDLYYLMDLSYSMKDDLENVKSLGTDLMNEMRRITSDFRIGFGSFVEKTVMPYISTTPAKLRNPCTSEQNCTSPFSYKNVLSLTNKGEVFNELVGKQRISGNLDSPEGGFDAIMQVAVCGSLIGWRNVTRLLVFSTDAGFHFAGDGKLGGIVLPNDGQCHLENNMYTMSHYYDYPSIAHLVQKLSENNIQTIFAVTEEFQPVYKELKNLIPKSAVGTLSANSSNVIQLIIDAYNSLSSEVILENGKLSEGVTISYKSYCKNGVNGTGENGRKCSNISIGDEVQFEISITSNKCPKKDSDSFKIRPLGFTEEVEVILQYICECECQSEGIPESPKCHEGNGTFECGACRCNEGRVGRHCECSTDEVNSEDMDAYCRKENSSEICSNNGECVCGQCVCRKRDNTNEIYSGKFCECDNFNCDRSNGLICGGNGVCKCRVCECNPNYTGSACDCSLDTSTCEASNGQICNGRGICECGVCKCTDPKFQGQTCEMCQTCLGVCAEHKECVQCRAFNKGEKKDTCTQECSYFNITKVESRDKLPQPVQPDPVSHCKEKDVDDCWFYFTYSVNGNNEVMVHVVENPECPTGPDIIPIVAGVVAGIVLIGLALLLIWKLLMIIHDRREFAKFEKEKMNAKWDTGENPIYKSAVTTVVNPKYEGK
Method in brief: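 51Cr-labelled Jurkat cells (human T lymphoblastic) were preincubated 30 min at about 22 °C with peptide, then allowed to bind 30 min at 37 °C to wells coated with CS-1 peptide or CS-1-OVA. After washing, bound cells were lysed with SDS and counted. IC50 is the peptide concentration halving binding, normalized to plate controls.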

BALB/c mice = test: Delayed type hypersensitivity in mice (adoptive transfer, oxazolone); format: in vivo, mouse; conditions: 6 mg/kg/day subcutaneously by implanted pump for 24 hours; FIG. 5
Description: An adoptive transfer delayed-type hypersensitivity murine model has been developed using splenic T cells primed to oxazolone. This model is described in Elices et al., Clin. Exp. Rheum., 11(Suppl. 8):577-580 (1993), whose procedures were followed here.
Thus, BALB/c mice were shaved on the belly and painted (50 μl on the belly and 5 μl on each paw) with three percent oxazolone in acetone/olive oil (4:1) at days zero and 1. At day 5, the mice were sacrificed, their spleens removed, and splenic T cells were obtained via nylon wool columns.
Normal saline or saline containing 25×10^6 /animal of the oxazolone-immune T cells were separately injected into naive mice. The mice were then challenged by painting 10 μl of 2 percent oxazolone onto one ear each. All procedures were carried out under sterile conditions and in endotoxing-free buffers.
Prior to challenge or saline injection, the mice were implanted with pumps that subcutaneously administered normal saline, normal saline containing the peptide N-phenylacetyl-Leu-Asp-Phe-D-Pro-NH2 or normal saline containing a peptide with a scrambled sequence continually at 6 mg/kg/day for a 24-hour time period. The swelling diameter at the site of challenge or saline injection was measured with a microcaliper 24 hours thereafter.

[1] = Toxicity study at 600 mg/kg/day; format: in vivo
Source text: The results of this study are shown in the graph of FIG. 5 for the saline and recited inhibitor peptide treatments.

New Zealand white rabbit = test: Rabbit cardiac allograft model; format: in vivo; conditions: 1 mg/kg/day injections, day 7
Description: New Zealand white rabbit SPF hearts were allografted into the necks of similar rabbits to assay a graft-vs-host immunorejection model and the affect of a contemplated peptide on that immunoinflammatory response. These studies were carried out by Dr. M. Rabinovitch of the Hospital for Sick Children, Toronto, Ontario, Canada.
Here, two rabbits were injected on day zero with 1 mg/kg/day of the inhibitor peptide N-phenylacetyl-Leu-Asp-Phe-D-Pro-NH2 in aqueous diluent. The two rabbits then each received a grafted heart, with the graft being made in the carotid artery to the aorta of the grafted heart, and the jugular vein to the pulmonary artery of the grafted heart. The rabbits thereafter received daily injections of the same dose of that peptide, and were sacrificed on day 7. Another animal that received normal saline injections in place of the peptide injections, also received a similarly allografted heart, and was similarly sacrificed at day 7.
The animals' blood vessels were thereafter examined histologically for evidence of arteriopathy, and particularly thickening of the intimal elastic lamina (IEL) layer of the coronary arteries. Thickening of the IEL is caused at least in part by emigration of effector cells bearing the CD2 marker such as T cells and NK cells. Clausell et al., Am. J. Path., 142(6):1772-1786 (1993). […]

SJL/J mice = test: Experimental autoimmune encephalomyelitis in mice; format: in vivo; conditions: 1 mg/mouse intraperitoneally at days 8 and 9; versus scrambled control peptide; FIG. 6
Source text: Experimental autoimmune encephalomyelitis (EAE) is a demyelinating disease of the central nervous system that can be induced in susceptible strains of mice and rats by immunization with myelin basic protein, proteolipid protein (PLP), or their immunodominant T cell determinants, or by injection of CD4-positive T cell clones specific for those determinants. EAE serves as an animal model of human multiple sclerosis. In both diseases, circulating leukocytes such as T cells and monocytes penetrate the blood/brain barrier and damage myelin, resulting in paralysis.
EAE was induced in female SJL/J mice (8 to 14 weeks old) by immunization on day zero with 50 μg of a peptide corresponding to positions 139-151 of PLP emulsified in a 1:1 mixture of PBS and complete Freund's adjuvant (CFA). […]
Mice were observed daily, beginning at day 8 for clinical signs of EAE, and disease was scored on a scale of 0-5 as: 0=no disease; 1=floppy tail; 2=moderate hind limb weakness; 3=paraparesis; 4=paraplegis with moderate forelimb weakness; 5=qualdriplegis or premoribund state. […]
Summed or averaged scores for clinical signs were plotted vs. time. The area under the resulting curves was calculated between day 8 and day 35 to calculate percentage inhibition of EAE by an inhibitor peptide. The percent inhibition was calculated as follows: […]

[2] = Retention of potency in PBS containing 10 percent serum; conditions: PBS at 7.2-7.4 containing 10 percent mouse or human serum

Row | Structure (SMILES) | inhibition of Jurkat cell adhesion to RA synovial sections (Jurkat T cell line) | RELATIVE POTENCY (relative peptide inhibition of VLA-4 binding CS-1) (VLA-4) | reduction of inflammation (ear swelling diameter at challenge site) (BALB/c mice) | toxicity [1] | percentage of IEL thickening based on total coronary vessel area (lesion severity) (New Zealand white rabbit; 59 vessels of two rabbits, saline 35, basal about 15) | vessels exhibiting IEL thickening (New Zealand white rabbit; 141 vessels of two rabbits, saline about 80, basal about 20) | clinical signs of EAE (SJL/J mice) | IC50 (VLA-4) [nM] | binding inhibition better than the standard 10-mer peptide of SEQ ID NO:3 (VLA-4) | RELATIVE POTENCY (relative peptide inhibition of VLA-4 binding CS-1) (VLA-4; normalized IC50 relative to standard peptide of SEQ ID NO:3 (=1), about one-tenth or less of the standard is assigned zero) | loss of potency after 24 hours [2]
1 | CC[C@H](C)[C@H](NC(=O)[C@H](CCC(=O)O)NC(=O)[C@@H]1CCCN1C(=O)CN)C(=O)N[C@@H](CC(C)C)C(=O)N[C@@H](CC(=O)O)C(=O)N[C@H](C(=O)N1CCC[C@H]1C(=O)N[C@@H](CO)C(=O)N[C@H](C(=O)O)[C@@H](C)O)C(C)C [G P E I L D V P S T free amine free acid, GPEILDVPST, reference compound] (H-GPEILDVPST-OH) | could be inhibited | 1 | – | – | – | – | – | – | – | – | –
2 | CC(C)C[C@H](NC(=O)Cc1ccccc1)C(=O)N[C@@H](CC(=O)O)C(=O)N[C@@H](Cc1ccccc1)C(=O)N1CCC[C@@H]1C(N)=O [X L D F p phenylacetyl amide, N-phenylacetyl-Leu-Asp-Phe-D-Pro-NH2] (PhAc-LDF[dP]-NH2) | – | – | reduced this type of CS-1/VLA-4-mediated immunoinflammation | no toxicity | about 18% | about 30% | marked improvement in clinical signs | ~500 | about 312 times | 313 | no loss of potency
